Data as given in patent US10132816B2, “Measurement of FGF21 as a biomarker of fructose metabolism” (Beth Israel Deaconess Medical Center, Inc., priority 2013, dated 2018).

What was measured:
circulating FGF21 levels = test: oral fructose load versus oral glucose load, circulating FGF21 in human subjects; assay type: in vivo; conditions: two hours after ingestion of 75 grams of fructose, lean healthy subjects
Text: FIGS. 2A-2B show plasma FGF21 levels: FIG. 2A) following ingestion of 75 grams glucose (n=8) and FIG. 2B) Plasma FGF21 levels following ingestion of 75 grams fructose in human subjects (n=10).
To test whether fructose ingestion can acutely regulate circulating FGF21 in human subjects, we compared the effects of administering a 75 gram oral glucose load versus a 75 gram oral fructose load on circulating FGF21 levels in lean healthy subjects. Ingestion of glucose has no effect on FGF21 levels (FIG. 2A and ^14). In contrast, circulating FGF21 levels increase ˜4-fold two hours after ingestion of 75 grams of fructose (FIG. 2B). Thus oral fructose ingestion, but not glucose ingestion acutely and robustly increases circulating FGF21 levels. To our knowledge FGF21 is the only known measurable circulating biomarker that specifically assesses an individual's acute metabolic response to fructose ingestion.

[1] = system: hepatic ChREBP-β, ChREBP transcriptional targets and circulating FGF21; test: mice fed chow, 60% dextrose or 60% fructose diets for 7 weeks: hepatic mRNA expression and circulating FGF21; assay type: in vivo; conditions: 7 weeks of 60% diet
Text: FIGS. 1A-1C are bar graphs of hepatic mRNA expression (FIG. 1A, 1B) and circulating (FIG. 1C) FGF21 levels in 15-week-old mice fed chow, 60% dextrose, or 60% fructose diets for 7 weeks, sacrificed in the ad lib fed state. * P<0.05 compared to all other groups. n=5-7 per group.
The FGF21 gene contains a ChREBP binding site in its promoter and exposure of primary hepatocytes to high glucose concentrations increases FGF21 expression in a ChREBP dependent manner^37,38. To determine whether ChREBP might regulate circulating FGF21 levels we fed mice chow, 60% dextrose, or 60% fructose diets. […] Thus, we hypothesized that the increase in circulating FGF21 levels associated with features of the metabolic syndrome might be due to activation of hepatic ChREBP and that fructose consumption might be important for this.

[2] = fructose: at first pass; cited from earlier work

With `O=C(CO)[C@@H](O)[C@H](O)[C@H](O)CO` [fructose] the “increase of circulating FGF21 levels” value (circulating FGF21 levels) was about 4 fold, the “circulating FGF21 levels” value [1] was “highest levels” and the “effect of fructose on hepatic ChREBP-β expression relative to that of dextrose” value [1] was about 3 fold. For the same compound, the “expression of ChREBP transcriptional targets (Pklr, Fasn, FGF21) in liver” value [1] was “greater increase”, the “hepatic expression of ChREBP-β compared to chow” value ([1]; ad lib fed state) was “markedly increases” and the “share of an oral load taken up / extracted by the liver” value [2] was about 100%.
